From ChEMBL document CHEMBL1140974, “Synthesis and antimalarial activity of semicarbazone and thiosemicarbazone derivatives” (Eur J Med Chem, 2008) come the findings set out here.

Data set [1] concerns PBMC. Put plainly: Antiproliferative activity against PHA-stimulated human PBMC at 20 ug/mL after 72 hrs by MTT assay relative to control. It is filed as cell-based. A general note: Formazan colour is commonly taken as a measure of viable cells.
In data set [2] the test system is Plasmodium falciparum. The data set is described as follows: Antimalarial activity against chloroquine-resistant Plasmodium falciparum W2 in human erythrocytes at 20 ug/mL by [3H]hypoxanthine uptake. The class given is functional.
The test system of data set [3] is PBMC. The data set is described as follows: Antiproliferative activity against PHA-stimulated human PBMC after 72 hrs by MTT assay. The class given is cell-based.
The test system of data set [4] is Plasmodium falciparum. Put plainly: Antimalarial activity against chloroquine-resistant Plasmodium falciparum W2 in human erythrocytes by [3H]hypoxanthine uptake. It is filed as functional, organism-based.
Data set [5] relates to Plasmodium berghei. The data set is described as follows: Antiplasmodial activity as reduced parasitaemia after 5 days in Plasmodium berghei NK65 infected BALB/c mice (Mus musculus) at 20 mg/kg/day over 4 days. It is filed as functional. Set-up: scale not given: the % may be the effect or the level left.
In data set [6] the test system is Plasmodium berghei. The data set is described as follows: Antiplasmodial activity as reduced parasitaemia after 5 days in Plasmodium berghei NK65 infected BALB/c mice (Mus musculus) at 15 mg/kg/day over 4 days. The class given is functional. Further details: scale not given: the % may be the effect or the level left.
Data set [7] relates to Plasmodium berghei. The data set is described as follows: Antiplasmodial activity as reduced parasitaemia after 5 day sin Plasmodium berghei NK65 infected BALB/c mice (Mus musculus) at 10 mg/kg/day over 4 days. The class given is functional. Further details: scale not given: the % may be the effect or the level left.
Data set [8] concerns Plasmodium berghei. The data set is described as follows: Antiplasmodial activity as reduced parasitaemia after 7 days in Plasmodium berghei NK65 infected BALB/c mice (Mus musculus) at 15 mg/kg/day over 4 days. Set-up: scale not given: the % may be the effect or the level left. It is filed as functional.
Data set [9] deals with Plasmodium berghei. Put plainly: Antiplasmodial activity as reduced parasitaemia after 7 days in Plasmodium berghei NK65 infected BALB/c mice (Mus musculus) at 5 mg/kg/day over 4 days. The class given is functional. Further details: scale not given: the % may be the effect or the level left.
Data set [10] has as its system Plasmodium berghei. The data set is described as follows: Antiplasmodial activity after 5 days as reduced parasitaemia in Plasmodium berghei NK65 infected BALB/c mice (Mus musculus) at 5 mg/kg/day for 4 days. It is filed as functional. Further details: scale not given: the % may be the effect or the level left.
Data set [11] deals with Plasmodium berghei. Put plainly: Antiplasmodial activity as reduced parasitaemia after 7 days in Plasmodium berghei NK65 infected BALB/c mice (Mus musculus) at 20 mg/kg/day over 4 days. The class given is functional. Further details: scale not given: the % may be the effect or the level left.
Data set [12] relates to Plasmodium berghei. The data set is described as follows: Antiplasmodial activity as reduced parasitaemia after 7 days in Plasmodium berghei NK65 infected BALB/c mice (Mus musculus) at 10 mg/kg/day over 4 days. It is filed as functional. Set-up: scale not given: the % may be the effect or the level left.

The structures appear in SMILES notation. The source made the active and inactive calls. The calls are words filed in the database; no cut-off is given here.

In the data set on PBMC [1], `CC1(C)C2CC=C(/C=N/NC(N)=O)C1C2` (stereo not drawn) yielded an Activity of 110%. The result in the data set on Plasmodium falciparum [2] was inactive.

With `COc1cc(/C=N/NC(N)=O)ccc1O`, the Activity with PBMC [1] amounted to 116%. The result in the data set with Plasmodium falciparum [2] was inactive.

For the molecule `CC(C)=CCC/C(C)=N\NC(N)=S`, the figures for the IC50 with PBMC [3] and in the data set with Plasmodium falciparum [4] were 35.2 µM and 12.6 µM, respectively. This molecule also returned an Activity in the data set with PBMC [1] of 98%. Besides, the inhibition at 20 µg/mL in the data set with Plasmodium falciparum [2] is 100%.

Regarding `CCCC/C(CC)=N\NC(N)=O`, in the data set with PBMC [1], the Activity is listed as 89%. For the same molecule, the result with Plasmodium falciparum [2] was inactive.

In the data set with PBMC [1], `COc1ccc(/C=N/NC(N)=O)cc1OC` registered an Activity of 80%. Further, the inhibition at 20 µg/mL in the data set with Plasmodium falciparum [2] was determined as 32%.

In turn, `COc1ccc(/C=N/NC(N)=O)cc1` gave an Activity with PBMC [1] of 141%. This molecule also yielded an inhibition at 20 µg/mL in the data set on Plasmodium falciparum [2] of 38%.

Molecule `COc1cc(/C=N/NC(N)=O)cc(OC)c1OC` gave an Activity in the data set on PBMC [1] of 107%. Also, in the data set with Plasmodium falciparum [2], the outcome was inactive.

For `CC/C(=N/NC(N)=O)C(C)CC=C(C)C` (stereo not drawn), the Activity in the data set with PBMC [1] is 0%. Besides, the outcome in the data set on Plasmodium falciparum [2] was inactive.

`CC1(C)C2CC=C(/C=N/NC(N)=S)C1C2` (stereo not drawn): the Activity in the data set with Plasmodium berghei [5] came to 77.5%; in the data set on Plasmodium berghei [6], 93%; in the data set with Plasmodium berghei [7], 36%; in the data set on Plasmodium berghei [8], 94.5%; with Plasmodium berghei [9] it was 8%; in the data set with Plasmodium berghei [10], 0%. The Activity amounted to 61% in the data set with Plasmodium berghei [11], 76% with PBMC [1] and 32% in the data set on Plasmodium berghei [12]. Further, the figures for the IC50 in the data set with PBMC [3] and with Plasmodium falciparum [4] were 73.5 µM and 7.2 µM, respectively. In the data set on Plasmodium falciparum [2], this molecule returned an inhibition at 20 µg/mL of 95%.

Consider `CC(C)=CCC/C(C)=N\NC(N)=O`, for which, in the data set with PBMC [1], the Activity was found to be 107%. The result in the data set on Plasmodium falciparum [2] was inactive.

Take `COc1cc(/C=N/NC(N)=S)cc(OC)c1OC`: in the data set with PBMC [1], the Activity is given as 78%. Further, the outcome in the data set on Plasmodium falciparum [2] was inactive.

For `COc1ccc(/C=N/NC(N)=S)cc1`, the Activity in the data set with PBMC [1] worked out at 90%. For the same molecule, in the data set on Plasmodium falciparum [2], the result was inactive.

In turn, `CCN(CC)CCCC(C)Nc1ccnc2cc(Cl)ccc12` (stereo not drawn) [CHLOROQUINE] showed an IC50 with PBMC [3] of 5.1 µM.

In the case of `CC/C(=N/NC(N)=S)C(C)CC=C(C)C` (stereo not drawn), the IC50 in the data set on PBMC [3] came out at 31.3 µM; with Plasmodium falciparum [4], 9.2 µM. The molecule further had an Activity in the data set with PBMC [1] of 60%. In the data set on Plasmodium falciparum [2], the inhibition at 20 µg/mL worked out at 99%.

As to `CN(C)c1ccc(/C=N/NC(N)=O)cc1`, the Activity with PBMC [1] is given as 84%. The result in the data set with Plasmodium falciparum [2] was inactive.

As usually defined, the IC50 is the midpoint of a concentration-inhibition curve. In general, inhibition refers to how much of the control response was suppressed.
